Results: US20070259856A1, “Method for Activating Trpv4 Channel Receptors by Agonists” (priority 2004, published 2007)
Marks after values point to notes of the source that are not given here.

What was measured:
[1] = tested on: HEK293 MSRII cells without human TRPV4 vector; assay: Whole cell patch clamp, HEK293 MSRII cells exposed to BacMam virus alone; format: cell-based; settings: 3 μM
TRPV4 channel receptor [2] = target: T1, TRPV4 channel receptor (Homo sapiens, UniProt Q9HBA0); assay: Whole cell patch clamp, HEK293 MSRII cells transduced with human TRPV4 BacMam virus; format: cell-based; parameters: V5-His (from the vector's name only); expressed in transfected cells; host or cells: HEK293
T1 sequence (Q9HBA0 whole entry): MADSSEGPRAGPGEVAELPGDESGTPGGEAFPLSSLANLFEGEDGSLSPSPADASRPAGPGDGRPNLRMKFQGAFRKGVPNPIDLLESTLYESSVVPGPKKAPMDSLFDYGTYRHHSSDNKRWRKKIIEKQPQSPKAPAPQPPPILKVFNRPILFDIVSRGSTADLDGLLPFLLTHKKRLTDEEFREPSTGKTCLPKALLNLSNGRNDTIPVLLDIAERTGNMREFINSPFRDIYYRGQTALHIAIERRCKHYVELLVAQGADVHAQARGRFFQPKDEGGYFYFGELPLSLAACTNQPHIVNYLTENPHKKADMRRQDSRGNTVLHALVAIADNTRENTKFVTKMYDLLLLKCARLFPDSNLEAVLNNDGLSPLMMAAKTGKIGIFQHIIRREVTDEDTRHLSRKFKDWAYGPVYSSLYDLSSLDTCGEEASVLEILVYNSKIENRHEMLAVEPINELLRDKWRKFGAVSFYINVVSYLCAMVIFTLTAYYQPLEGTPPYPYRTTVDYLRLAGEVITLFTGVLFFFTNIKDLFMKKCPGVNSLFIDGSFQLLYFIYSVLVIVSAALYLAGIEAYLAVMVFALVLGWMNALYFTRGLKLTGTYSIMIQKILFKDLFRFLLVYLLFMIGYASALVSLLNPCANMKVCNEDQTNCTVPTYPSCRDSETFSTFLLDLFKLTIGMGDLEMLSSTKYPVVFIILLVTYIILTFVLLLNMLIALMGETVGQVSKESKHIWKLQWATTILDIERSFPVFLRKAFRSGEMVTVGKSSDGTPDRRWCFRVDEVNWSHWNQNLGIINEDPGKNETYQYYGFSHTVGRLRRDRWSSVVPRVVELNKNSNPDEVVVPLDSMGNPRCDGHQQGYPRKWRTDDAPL
Description: Functional, cell-based assays presently utilized to evaluate the activity of TRPV4 channel receptor agonists (e.g., FLIPR) provide an indirect, downstream measure of channel activation or blockage. In order to more directly evaluate a compound's effect on TRPV4 channel receptor, procedures to electrophysiologically record current flow through TRPV4 channels have been established. These procedures utilize HEK293 MSRII cells transiently transduced with 5% human TRPV4 BacMam virus, a standard extracellular physiological saline solution, and a well established, potassium channel-blocking electrode (internal) solution (Vriens et al., PNAS, 2004). Standard whole cell patch clamp techniques were used to maintain cells at a holding potential of 0 mV between inductions of 200 msec, −100 mV to +100 mV ramp protocols every 5 seconds. The inset of FIG. 1 represents the inward and outward current amplitude at −100 mV and +100 mV, respectively, during each ramp protocol prior to (baseline) and throughout the administration of 100 nM Formula IId. The main body of FIG. 1 illustrates the recorded current flow in response to a −100 mV to +100 mV ramp at the five specific times labelled in the inset.

aggrecanase = assay: IL-1 induced aggrecanase production, chondrocyte-based aggrecanase peptide cleavage assay; format: cell-based, bovine; settings: Bos taurus
Description: Aggrecanases (ADAMTSs), in conjunction with MMPs, degrade aggrecan, one of the major matrix components in articular cartilage. […] 2003; 48(1): 119-133].

TRPV4 channel receptor [3] = target: T1, TRPV4 channel receptor; assay: Ca2+ influx in human articular chondrocytes (FlexStation)
human cartilage explants = assay: Aggrecan degradation (GAG, DMMB) in human cartilage explants; format: cell-based; settings: for GAG Mean ± SEM: cumulative, 21 days
Experimental: Because the progression of aggrecan degradation in response to IL-1 in human cartilage is slower than in bovine cartilage, culture media was removed and replaced with fresh treatments every 2-3 days for approximately 3 weeks. For each timepoint, GAG levels were measured by DMMB assay, and cumulative data released over the entire 3 week culture period was calculated.
The data represents cumulative aggrecan degradation after 21 days in culture. […] In addition, Formula IId caused a concentration-dependent reduction of IL-1-induced aggrecan degradation. […] The estimated IC50's shown in Table 7 are very similar to those IC50's calculated from IL-1-stimulated bovine cartilage.

TRPV4 channel receptor [4] = target: T2, TRPV4 channel receptor (Bos taurus, UniProt A0A8F4X677); assay: Ca2+ influx in bovine articular chondrocytes (FlexStation); format: cell-based; settings: bovine chondrocytes
T2 construct: endogenous in cells; host or cells: bovine articular chondrocytes
T2 sequence (A0A8F4X677 1-871): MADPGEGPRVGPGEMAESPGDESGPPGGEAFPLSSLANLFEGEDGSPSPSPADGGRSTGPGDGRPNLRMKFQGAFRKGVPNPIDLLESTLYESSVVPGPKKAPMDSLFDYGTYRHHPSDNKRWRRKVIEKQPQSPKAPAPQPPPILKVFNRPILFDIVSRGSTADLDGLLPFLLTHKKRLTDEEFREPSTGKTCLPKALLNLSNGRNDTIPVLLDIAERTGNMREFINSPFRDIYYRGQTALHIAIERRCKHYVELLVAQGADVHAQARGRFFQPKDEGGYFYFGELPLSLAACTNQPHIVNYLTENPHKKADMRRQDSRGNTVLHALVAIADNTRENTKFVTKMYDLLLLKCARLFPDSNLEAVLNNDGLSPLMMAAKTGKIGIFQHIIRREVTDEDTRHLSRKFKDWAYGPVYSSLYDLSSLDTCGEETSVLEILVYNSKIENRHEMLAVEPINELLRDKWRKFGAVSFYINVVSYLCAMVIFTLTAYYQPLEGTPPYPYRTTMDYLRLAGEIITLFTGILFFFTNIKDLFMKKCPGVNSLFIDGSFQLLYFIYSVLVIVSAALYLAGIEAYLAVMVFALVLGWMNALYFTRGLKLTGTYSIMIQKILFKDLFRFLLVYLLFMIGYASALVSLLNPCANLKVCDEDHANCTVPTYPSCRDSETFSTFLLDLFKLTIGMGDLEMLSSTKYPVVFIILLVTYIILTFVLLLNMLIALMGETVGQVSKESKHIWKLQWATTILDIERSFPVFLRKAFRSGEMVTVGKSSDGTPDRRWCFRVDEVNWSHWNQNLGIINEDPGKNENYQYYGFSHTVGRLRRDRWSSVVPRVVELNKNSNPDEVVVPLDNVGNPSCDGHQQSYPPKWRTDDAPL

[5] = tested on: bovine articular cartilage explants; assay: IL-1 induced collagen degradation (hydroxyproline) in bovine articular cartilage explants; format: cell-based
Experimental: IL-1 stimulates collagen degradation in bovine articular cartilage explants after extended (−2-3 weeks) exposure to IL-1. Collagen breakdown was evaluated by measuring the levels of hydroxyproline, a major component of hydrolyzed collagen fibrils, using a colorimetric assay that is understood in the art. Bovine articular cartilage was stimulated with IL-1 for 18 days, in the absence or presence of Formula Ib or Formula IId (both at 1 uM). Media was removed and replaced every 2-4 days with fresh IL-1 and compound through day 18. As has been shown previously, aggrecan degradation precedes collagen breakdown in IL-1-stimulated bovine cartilage explants. Once aggrecan depletion had been achieved by day 10, media were analyzed for collagen breakdown using the hydroxyproline assay.

[6] = tested on: bovine articular cartilage explants; assay: IL-1 induced aggrecan degradation (GAG release, DMMB) in bovine articular cartilage explants; format: cell-based; settings: Bos taurus; IL-1-stimulated bovine cartilage
Description: Articular cartilage explants isolated from newborn calves at slaughter were placed in culture, and aggrecan degradation was initiated through stimulation with IL-1. Since aggrecan degradation in this model is believed to be mediated by aggrecanase, TRPV4 channel receptor agonists that are active in the chondrocyte-based aggrecanase peptide assay (Example 11) may also be effective inhibitors in the cartilage explant assay, presumably by blocking aggrecanase production in these tissues.
At the end of the culture period, conditioned media were assayed for glycosaminoglycan (GAG) levels by colorimetric (DMMB) assay as a measure of aggrecan degradation. In bovine explants, IL-1 induced a profound increase in the amount of GAG released into the media during the 3 day culture. When cartilage was treated with IL-1 in combination with Formula IIc, there was a concentration-dependent reduction in GAG release as shown in Table 5.

TRPV4 channel receptor-mediated current (TRPV4 channel receptor [2]; 100 nM, -100 mV to +100 mV ramp): activated a human TRPV4 channel receptor
lowest concentration observed to activate the human TRPV4 channel receptor (TRPV4 channel receptor [2]; whole cell patch clamp): 10 nM
IC50 (aggrecanase): 40 nM
EC50 (TRPV4 channel receptor [3]; Ca Influx - FLEX (human) EC50, human chondrocytes): 110 nM
Ca Influx - FLEX (human) % effic. (TRPV4 channel receptor [3]; human chondrocytes): 179%
Ca Influx - FLEX (bovine) % effic. (TRPV4 channel receptor [4]): 79%
EC50 (TRPV4 channel receptor [4]; read-out: Ca Influx - FLEX (bovine) EC50): 120 nM
SMILES: CC(C)C[C@H](NC(=O)c1cc2ccccc2s1)C(=O)N[C@@H]1CCCN(S(=O)(=O)c2ccccc2C#N)CC1=O [Formula IId, N-{(1s)-1-[({(4r)-1-[(2-Cyanophenyl)Sulfonyl]-3-Oxohexahydro-1H-Azepin-4-Yl}Amino)Carbonyl]-3-Methylbutyl}-1-Benzothiophene-2-Carboxamide]
effect on membrane currents [1]: no measurable effect
inhibition at 0.01 µM (human cartilage explants; Homo sapiens, IL-1 (100 ng/ml), 0.01 uM, relative to IL-1 stim. GAG release): 35%
inhibition at 0.1 µM (human cartilage explants; Homo sapiens, IL-1 (100 ng/ml), 0.1 uM, relative to IL-1 stim. GAG release): 89%
inhibition at 1 µM (human cartilage explants; Homo sapiens, IL-1 (100 ng/ml), 1 uM, relative to IL-1 stim. GAG release): > 100%
inhibition at 0.01 µM (human cartilage explants; Homo sapiens, unstimulated, 0.01 uM, relative to control GAG release): 12%
inhibition at 0.1 µM (human cartilage explants; Homo sapiens, unstimulated, 0.1 uM, relative to control GAG release): 34%
inhibition at 1 µM (human cartilage explants; Homo sapiens, unstimulated, 1 uM, relative to control GAG release): 45%
IC50 (human cartilage explants; Homo sapiens, estimated, 3-point concentration response): 30 nM
GAG Mean ± SEM (human cartilage explants; IL-1 (100 ng/ml), 0.01 uM): 15.9 ± 1.6 µg/mg
GAG Mean ± SEM (human cartilage explants; IL-1 (100 ng/ml), 0.1 uM): 8.2 ± 0.5 µg/mg
GAG Mean ± SEM (human cartilage explants; IL-1 (100 ng/ml), 1 uM): 4.8 ± 0.5 µg/mg
% inhibition (human cartilage explants; IL-1 (100 ng/ml), 1 uM, relative to IL-1 stim. GAG release): 113** %
blocking of aggrecan degradation in unstimulated human cartilage explants (human cartilage explants; absence of IL-1): effective in blocking aggrecan degradation
GAG Mean ± SEM (human cartilage explants; unstimulated control, 0.01 uM): 5.9 ± 0.3 µg/mg
GAG Mean ± SEM (human cartilage explants; unstimulated control, 0.1 uM): 4.4 ± 0.2 µg/mg
GAG Mean ± SEM (human cartilage explants; unstimulated control, 1 uM): 3.7 ± 0.3 µg/mg
block of IL-1-induced collagen degradation [5]: partially, but effectively, blocked
IC50 [6]: 10 nM
